Molecules are shown by their SMILES.

Test [1] concerns the target T1, huPPARγ (Homo sapiens, UniProt P37231).
T1 sequence (P37231 1-505): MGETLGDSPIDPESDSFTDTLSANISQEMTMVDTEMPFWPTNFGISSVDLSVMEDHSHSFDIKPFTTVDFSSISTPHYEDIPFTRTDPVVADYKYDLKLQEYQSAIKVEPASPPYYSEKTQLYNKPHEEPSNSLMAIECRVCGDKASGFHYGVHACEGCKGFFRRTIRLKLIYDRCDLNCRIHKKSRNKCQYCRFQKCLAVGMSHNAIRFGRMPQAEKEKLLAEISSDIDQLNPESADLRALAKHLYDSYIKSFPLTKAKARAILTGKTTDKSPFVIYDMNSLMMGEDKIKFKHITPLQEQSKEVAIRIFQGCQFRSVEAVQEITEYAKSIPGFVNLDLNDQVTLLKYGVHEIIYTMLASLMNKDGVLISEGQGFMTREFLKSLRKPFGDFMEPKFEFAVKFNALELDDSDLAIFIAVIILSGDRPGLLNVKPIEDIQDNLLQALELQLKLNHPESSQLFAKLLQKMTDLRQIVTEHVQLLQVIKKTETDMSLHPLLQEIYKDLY
T1 sequence (P19793 1-462 partner): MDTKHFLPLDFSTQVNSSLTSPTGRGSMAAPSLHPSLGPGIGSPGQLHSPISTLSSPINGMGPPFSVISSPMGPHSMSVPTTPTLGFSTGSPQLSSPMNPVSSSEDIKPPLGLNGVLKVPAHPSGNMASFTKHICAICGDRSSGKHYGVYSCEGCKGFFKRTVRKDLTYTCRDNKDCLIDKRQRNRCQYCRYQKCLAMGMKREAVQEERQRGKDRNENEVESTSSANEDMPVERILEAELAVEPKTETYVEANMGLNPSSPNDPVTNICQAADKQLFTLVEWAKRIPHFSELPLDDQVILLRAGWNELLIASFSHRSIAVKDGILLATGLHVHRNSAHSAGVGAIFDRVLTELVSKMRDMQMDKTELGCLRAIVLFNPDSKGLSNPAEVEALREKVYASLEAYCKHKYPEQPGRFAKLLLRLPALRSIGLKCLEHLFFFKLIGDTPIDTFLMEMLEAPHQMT
Nature of the test: DNA-dependent binding (ABCD binding) using SPA technology, huPPARγ. The note with it: SPA displacement of tritium-labeled PPARγ agonist radioligand. Here is the method:
(§1) DNA-dependent binding (ABCD binding) was carried out using SPA technology with PPAR receptors. Tritium-labeled PPARα and PPARγ agonists were used as radioligands for generating displacement curves and IC50 values with compounds of the invention. Cotransfection assays were carried out in CV-1 cells. The reporter plasmid contained an acylCoA oxidase (AOX) PPRE and TK promoter upstream of the luciferase reporter cDNA. Appropriate PPARs and RXRα were constitutively expressed using plasmids containing the CMV promoter. […] In order to eliminate such interference, a GAL4 chimeric system was used in which the DNA binding domain of the transfected PPAR was replaced by that of GAL4, and the GAL4 response element was utilized in place of the AOX PPRE. Cotransfection efficacy was determined relative to PPARα agonist and PPARγ agonist reference molecules. Efficacies were determined by computer fit to a concentration-response curve, or in some cases at a single high concentration of agonist (10 μM). For binding or cotransfection studies with receptors other than PPARs, similar assays were carried out using appropriate ligands, receptors, reporter constructs, etc., for that particular receptor.
(§2) These studies were carried out to evaluate the ability of compounds of the invention to bind to and/or activate various nuclear transcription factors, particularly huPPARα (“hu” indicates “human”) and huPPARγ. These studies provide in vitro data concerning efficacy and selectivity of compounds of the invention. Furthermore, binding and cotransfection data for compounds of the invention were compared with corresponding data for marketed compounds that act on either huPPARα or huPPARγ.

The subject of test [2] is huPPARα. The test is described as follows: Cotransfection assay in CV-1 cells, huPPARα. Type of test: cell-based, human. The note with it: GAL4 chimeric system, relative to PPARα agonist reference molecule. As to the method: as §1, §2
A further test relates to HuapoAI transgenic mice. The test is described as follows: Evaluation of triglyceride and cholesterol level in HuapoAI transgenic mice. The test is classed as in vivo. Particulars: Mus musculus, 168 h; human apoAI transgenic mice, 30 mg/kg oral gavage daily for 7 days, FPLC area under the curve, over mice receiving vehicle; read-out: % HDLc Increase. As to the method:
After an acclimation period of 2 weeks, animals were individually identified by ear notches, weighed, and assigned to groups based on body weight. Beginning the following morning, mice were dosed daily by oral gavage for 7 days using a 20 gauge, 1½″ curved disposable feeding needle (Popper & Sons). […] Prior to termination on day 7, mice were weighed and dosed. Three hours after dosing, animals were anesthetized by inhalation of isoflurane (2-4%; Abbott Laboratories, Chicago, Ill.) and blood obtained via cardiac puncture (0.7-1.0 ml). Whole blood was transferred to serum separator tubes (Vacutainer SST), chilled on ice, and permitted to clot. Serum was obtained after centrifugation at 4° C. and frozen until analysis for triglycerides, total cholesterol, compound levels, and serum lipoprotein profile by fast protein liquid chromatography (FPLC) coupled to an inline detection system. After sacrifice by cervical dislocation, the liver, heart and epididymal fat pads were excised and weighed.
The absorbance of the dye produced is linearly related to the analyte in the sample. The assays were further modified in our laboratory for use in a 96 well format. […] An additional aliquot of sample, pipetted to a third well and diluted in 200 μl water, provided a blank for each specimen. […] Sample absorbances were compared to a standard curve (100-800, 10-500, and 100-400 mg/dl for glucose, triglycerides and total cholesterol, respectively). […] All samples from an experiment were assayed at the same time to minimize inter-assay variability.
Serum lipoproteins were separated and cholesterol quantitated with an in-line detection system. Sample was applied to a Superose® 6 HR 10/30 size exclusion column (Amersham Pharmacia Biotech) and eluted with phosphate buffered saline-EDTA at 0.5 ml/min. […] The change in voltage corresponding to change in cholesterol concentration was plotted vs time and the area under the curve corresponding to the elution of VLDL, LDL and HDL was calculated using Perkin Elmer Turbochrome software.

Test [3] addresses T2, huPPARα (Homo sapiens, UniProt Q07869).
T2 sequence (Q07869 1-468): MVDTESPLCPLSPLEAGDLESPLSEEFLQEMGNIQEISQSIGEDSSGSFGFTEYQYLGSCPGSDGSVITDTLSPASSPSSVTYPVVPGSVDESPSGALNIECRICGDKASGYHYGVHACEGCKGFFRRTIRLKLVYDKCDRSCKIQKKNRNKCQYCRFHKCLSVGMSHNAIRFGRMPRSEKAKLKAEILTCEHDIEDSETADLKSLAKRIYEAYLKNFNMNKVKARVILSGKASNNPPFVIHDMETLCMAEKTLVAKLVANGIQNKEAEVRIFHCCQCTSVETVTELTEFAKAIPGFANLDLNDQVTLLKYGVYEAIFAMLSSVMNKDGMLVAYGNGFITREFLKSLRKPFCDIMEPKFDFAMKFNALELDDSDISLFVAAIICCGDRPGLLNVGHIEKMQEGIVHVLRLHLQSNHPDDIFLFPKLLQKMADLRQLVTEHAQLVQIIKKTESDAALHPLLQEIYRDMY
T2 sequence (P19793 1-462 partner): T1 sequence (P19793 1-462 partner)
The test is described as follows: DNA-dependent binding (ABCD binding) using SPA technology, huPPARα. Particulars: SPA displacement of tritium-labeled PPARα agonist radioligand. Here is the method:
as §1, §2

Test [4] addresses T1, huPPARγ. The test is described as follows: Cotransfection assay in CV-1 cells, huPPARγ. The note with it: AOX PPRE luciferase reporter, relative to PPARγ agonist reference molecule; for Emax: read-out: huPPARγ CTF Efficacy. Type of test: cell-based. Details: Appropriate PPARs and RXRα were constitutively expressed using plasmids containing the CMV promoter; expressed in transfected cells; host or cells: CV-1 cells. Here is the method:
as §1, §2
In general terms: Reporter assays use an easily measured gene product as a stand-in for the process of interest.

In general, IC50 refers to the concentration that gives 50% inhibition. Turning to `Cc1oc(C2CCCCC2)nc1CCOc1ccc(CC(C)(Oc2ccc(Cl)cc2)C(=O)O)cc1` (stereo not shown) [Example 31, 2-(4-Chlorophenoxy)-3-{4-[2-(2-cyclohexyl-5-methyl-oxazol-4-yl)-ethoxy]-phenyl}-2-methyl-propionic acid], the IC50 on huPPARγ [1] was 19 nM; at huPPARα [3], 53 nM. Further, in the test with huPPARα [2], the “huPPARα CTF Efficacy” value is reported as 63%. Further, the change in vivo at 30 mg/kg in the test with HuapoAI transgenic mice is 114%. Moreover, the Emax at huPPARγ [4] stood at 73%.

With `CCC(Cc1ccc(OCCc2nc(C3(C)CCCCC3)oc2C)cc1)(Oc1ccccc1)C(=O)O` (stereo not shown) [Example 49, 2-(4-{2-[5-Methyl-2-(1-methyl-cyclohexyl)-oxazol-4-yl]-ethoxy}-benzyl)-2-phenoxy-butyric acid], the IC50 on huPPARγ [1] turned out to be 655 nM; on huPPARα [3], 175 nM. The “huPPARα CTF Efficacy” value with huPPARα [2] was found to be 63%. Besides, in the test with HuapoAI transgenic mice, the change in vivo at 30 mg/kg was found to be 17%. Besides, the Emax at huPPARγ [4] is 58%.

Turning to `CC(C)(Oc1ccc(C(=O)c2ccc(Cl)cc2)cc1)C(=O)O` [Fenofibric acid, reference compound], in the test on huPPARα [2], the “huPPARα CTF Efficacy” value was determined as 16%. Moreover, on huPPARγ [4], the “huPPARγ CTF Efficacy” value is 0%.

For `Cc1c(C)c2c(c(C)c1O)CCC(C)(COc1ccc(CC3SC(=O)NC3=O)cc1)O2` (stereo not shown) [Troglitazone, reference compound], the “huPPARα CTF Efficacy” value with huPPARα [2] is listed as 0%.

Values taken from US7345070B2, “Peroxisome proliferator activated receptor agonists” (Eli Lilly and Company, priority 2000, dated 2008).
